# Test system: human endothelial cells
# Experiment: β-catenin immunofluorescent microscopy
# Format: cell-based
# Settings: HGF-stimulated cells
# Description: Endothelial cell monolayers grown on gelatinized cover slips were rinsed with M199 and incubated with agonists in the same medium in a 37° C. incubator (5% CO2). Monolayers were then rinsed with PBS (3×2 min), fixed in 4% paraformaldehyde for 10 min, again rinsed with PBS (3×2 min), and permeabilized with 0.25% Triton X-100 for 5 min. Cells were then washed briefly with PBS (3×2 min), blocked with PBS containing 2% BSA for 30 min and incubated with 1 Unit/mL of Texas Red-X phalloidin (Molecular Probes, Eugene, Oreg.), β-catenin antibody (Transduction Laboratories, Lexington, Ky.), glycogen synthase kinase-3 β (GSK-3β) (Santa Cruz Biotechnology, Inc., Santa Cruz, Calif.), or mono-phosphorylated MLC antisera (see Garcia, J. G. N. et al. (2001) J. Clin. Invest. 108:689-711) for 1 hr. After washing with PBS (3×2 min), cover slips were mounted on slides using SlowFade mounting medium (Molecular Probes). Cells were analyzed using a 60× oil objective on a Nikon Eclipse TE 300 microscope. Images were captured by Sony Digital Photo camera DKC 5000. The same exposure time was applied to all samples within one experiment. […]
substance,measurement,value
"HGF: heparin-binding glycoprotein, multifunctional cytokine, ligand of c-Met; purchased from R&D Systems",β-catenin immunoreactivity,increased β-catenin immunoreactivity along cell borders
